This passage reports IC50 and atherosclerotic lesion formation results from patent US8450317B2, “CXCR3 receptor antagonists” (Boehringer Ingelheim International GmbH, priority 2009, dated 2013).

As usually defined, the IC50 is the point on the concentration scale where inhibition reaches its midpoint.

For one assay, the target named is CXCR3 (Macaca fascicularis, UniProt A0A2K5UV19). Kind of assay: functional cellular assay measuring calcium flux in CXCR3 transfected cells (block of CXCR3/IP-10 interaction). As to conditions: IP-10 induced intracellular calcium flux; Cyno-CHO cells stably expressing recombinant CXCR3 and G-alpha-16; IP-10 at EC80; read-out: IC50. The format is cell-based, Cyno. Put shortly: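 Inhibition of IP-10-induced calcium flux at 10 microM final compound, 15 min room-temperature preincubation, with IP-10 at EC80. Cells: CHO stably transfected with cynomolgus CXCR3 plus G-alpha-16, dye-loaded (Ca-4, 2 mM probenecid, HBSS/HEPES pH 7.4) 1 h at 37° C.; fluorescence ex 480/em 540 nm.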
In general terms: Calcium flux is commonly read through the fluorescence of an indicator in the cells.

Assay [1] relates to LDL receptor knockout model. As to conditions: dosed prophylactically in a LDL receptor knockout model; cited from earlier work.

Structures are written as SMILES.

Sequence of CXCR3 (A0A2K5UV19 entry or part of it): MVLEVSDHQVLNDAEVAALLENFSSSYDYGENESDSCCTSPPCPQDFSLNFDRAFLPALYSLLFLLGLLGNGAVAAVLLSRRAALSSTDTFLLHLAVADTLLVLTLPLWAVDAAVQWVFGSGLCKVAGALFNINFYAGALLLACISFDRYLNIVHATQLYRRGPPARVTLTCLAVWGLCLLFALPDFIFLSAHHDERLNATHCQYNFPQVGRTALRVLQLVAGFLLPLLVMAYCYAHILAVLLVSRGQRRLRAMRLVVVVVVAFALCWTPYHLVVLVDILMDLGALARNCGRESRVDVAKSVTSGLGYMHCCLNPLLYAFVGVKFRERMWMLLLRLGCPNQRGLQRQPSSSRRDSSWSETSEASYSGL

Consider `C[C@@H]1CN(c2ccc(F)cc2C(=O)Nc2nc3c(s2)CN(C)CC3)CCN1C(=O)CN1Cc2ccccc2C1=O` [5-fluoro-2-{(3R)-3-methyl-4-[(1-oxo-1,3-dihydro-2H-isoindol-2-yl)acetyl]piperazin-1-yl}-N-(5-methyl-4,5,6,7-tetrahydro[1,3]thiazolo[5,4-c]pyridin-2-yl)benzamide], for which, on CXCR3, the IC50 amounted to 15 nM. Same read-out and setting: next, `C[C@@H]1CN(c2ccc(F)cc2C(=O)Nc2nc3c(s2)CN(C)CC3)CCN1C(=O)Cn1c(=O)[nH]c2ccccc21` [5-fluoro-2-{(3R)-3-methyl-4-[(2-oxo-2,3-dihydro-1H-benzimidazol-1-yl)acetyl]piperazin-1-yl}-N-(5-methyl-4,5,6,7-tetrahydro[1,3]thiazolo[5,4-c]pyridin-2-yl)benzamide]: 18 nM; `C[C@@H]1CN(c2ccc(F)cc2C(=O)Nc2nc3c(s2)CN(C)CC3)CCN1C(=O)CN1CCCCC1=O` [5-fluoro-2-{(3R)-3-methyl-4-[(2-oxopiperidin-1-yl)acetyl]piperazin-1-yl}-N-(5-methyl-4,5,6,7-tetrahydro[1,3]thiazolo[5,4-c]pyridin-2-yl)benzamide]: 20 nM; `CC(C)C(=O)N(C)CC(=O)N1CCN(c2ccc(F)cc2C(=O)Nc2nc3c(s2)CN(C)CC3)C[C@H]1C` [5-fluoro-2-{(3R)-3-methyl-4-[N-methyl-N-(2-methylpropanoyl)glycyl]piperazin-1-yl}-N-(5-methyl-4,5,6,7-tetrahydro[1,3]thiazolo[5,4-c]pyridin-2-yl)benzamide]: 19 nM.

Take `C[C@H]1CN(c2ccc(F)cc2C(=O)Nc2nc3c(s2)CN(C)CC3)CCN1C(=O)CN1Cc2ccccc2C1=O` [5-fluoro-2-{(3S)-3-methyl-4-[(1-oxo-1,3-dihydro-2H-isoindol-2-yl)acetyl]piperazin-1-yl}-N-(5-methyl-4,5,6,7-tetrahydro[1,3]thiazolo[5,4-c]pyridin-2-yl)benzamide]: the IC50 at CXCR3 stood at 15 nM. Turning to `C[C@H]1CN(c2ccc(F)cc2C(=O)Nc2nc3c(s2)CN(C)CC3)CCN1C(=O)Cn1c(=O)[nH]c2ccccc21` [5-fluoro-2-{(3S)-3-methyl-4-[(2-oxo-2,3-dihydro-1H-benzimidazol-1-yl)acetyl]piperazin-1-yl}-N-(5-methyl-4,5,6,7-tetrahydro[1,3]thiazolo[5,4-c]pyridin-2-yl)benzamide], the IC50 on CXCR3 was 12 nM. With `C[C@H]1CN(c2ccc(F)cc2C(=O)Nc2nc3c(s2)CN(C)CC3)CCN1C(=O)CN1CCCCC1=O` [5-fluoro-2-{(3S)-3-methyl-4-[(2-oxopiperidin-1-yl)acetyl]piperazin-1-yl}-N-(5-methyl-4,5,6,7-tetrahydro[1,3]thiazolo[5,4-c]pyridin-2-yl)benzamide], the IC50 on CXCR3 was found to be 17 nM. Take `CC(C)C(=O)N(C)CC(=O)N1CCN(c2ccc(F)cc2C(=O)Nc2nc3c(s2)CN(C)CC3)C[C@@H]1C` [5-fluoro-2-{(3S)-3-methyl-4-[N-methyl-N-(2-methylpropanoyl)glycyl]piperazin-1-yl}-N-(5-methyl-4,5,6,7-tetrahydro[1,3]thiazolo[5,4-c]pyridin-2-yl)benzamide]: on CXCR3, the IC50 came out at 14 nM. On to `COc1cc(NC(=O)c2cc(F)ccc2N2CCN(C(=O)Cn3ccc4cccnc43)[C@H](C)C2)ccn1` [5-fluoro-N-(2-methoxypyridin-4-yl)-2-[(3R)-3-methyl-4-(1H-pyrrolo[2,3-b]pyridin-1-ylacetyl)piperazin-1-yl]benzamide], for which the IC50 at CXCR3 came to 9 nM. The same measure, in the same setting: the figure for `COc1cc(NC(=O)c2cc(F)ccc2N2CCN(C(=O)Cn3ccc4ccncc43)[C@H](C)C2)ccn1` [5-fluoro-N-(2-methoxypyridin-4-yl)-2-[(3R)-3-methyl-4-(1H-pyrrolo[2,3-c]pyridin-1-ylacetyl)piperazin-1-yl]benzamide] is 9 nM; for `COc1cc(NC(=O)c2cc(F)ccc2N2CCN(C(=O)Cn3ccc4cccnc43)[C@@H](C)C2)ccn1` [5-fluoro-N-(2-methoxypyridin-4-yl)-2-[(3S)-3-methyl-4-(1H-pyrrolo[2,3-b]pyridin-1-ylacetyl)piperazin-1-yl]benzamide] it is 18 nM. Still for that read-out and setting: next, `COc1cc(NC(=O)c2cc(F)ccc2N2CCN(C(=O)Cn3ccc4ccncc43)[C@@H](C)C2)ccn1` [5-fluoro-N-(2-methoxypyridin-4-yl)-2-[(3S)-3-methyl-4-(1H-pyrrolo[2,3-c]pyridin-1-ylacetyl)piperazin-1-yl]benzamide]: 6 nM; `COc1cc(NC(=O)c2cc(F)ccc2N2CCN(C(=O)CN3Cc4ccccc4C3=O)[C@H](C)C2)ccn1` [5-fluoro-N-(2-methoxypyridin-4-yl)-2-{(3R)-3-methyl-4-[(1-oxo-1,3-dihydro-2H-isoindol-2-yl)acetyl]piperazin-1-yl}benzamide]: 7 nM. The same measure, in the same setting: the figure for `COc1cc(NC(=O)c2cc(F)ccc2N2CCN(C(=O)Cn3c(=O)[nH]c4ccccc43)[C@H](C)C2)ccn1` [5-fluoro-N-(2-methoxypyridin-4-yl)-2-{(3R)-3-methyl-4-[(2-oxo-2,3-dihydro-1H-benzimidazol-1-yl)acetyl]piperazin-1-yl}benzamide] is 8 nM; for `COc1cc(NC(=O)c2cc(F)ccc2N2CCN(C(=O)CN3CCCCC3=O)[C@H](C)C2)ccn1` [5-fluoro-N-(2-methoxypyridin-4-yl)-2-{(3R)-3-methyl-4-[(2-oxopiperidin-1-yl)acetyl]piperazin-1-yl}benzamide] it is 10 nM. For the compound `COc1cc(NC(=O)c2cc(F)ccc2N2CCN(C(=O)CN(C)C(=O)C(C)C)[C@H](C)C2)ccn1` [5-fluoro-N-(2-methoxypyridin-4-yl)-2-{(3R)-3-methyl-4-[N-methyl-N-(2-methylpropanoyl)glycyl]piperazin-1-yl}benzamide], on CXCR3, the IC50 was 9 nM. On the same count and under the same terms, the figure for `COc1cc(NC(=O)c2cc(F)ccc2N2CCN(C(=O)CN3Cc4ccccc4C3=O)[C@@H](C)C2)ccn1` [5-fluoro-N-(2-methoxypyridin-4-yl)-2-{(3S)-3-methyl-4-[(1-oxo-1,3-dihydro-2H-isoindol-2-yl)acetyl]piperazin-1-yl}benzamide] is 13 nM; for `COc1cc(NC(=O)c2cc(F)ccc2N2CCN(C(=O)Cn3c(=O)[nH]c4ccccc43)[C@@H](C)C2)ccn1` [5-fluoro-N-(2-methoxypyridin-4-yl)-2-{(3S)-3-methyl-4-[(2-oxo-2,3-dihydro-1H-benzimidazol-1-yl)acetyl]piperazin-1-yl}benzamide] it is 9 nM. Still for that read-out and setting: next, `COc1cc(NC(=O)c2cc(F)ccc2N2CCN(C(=O)CN3CCCCC3=O)[C@@H](C)C2)ccn1` [5-fluoro-N-(2-methoxypyridin-4-yl)-2-{(3S)-3-methyl-4-[(2-oxopiperidin-1-yl)acetyl]piperazin-1-yl}benzamide]: 8 nM.

Take `COc1cc(NC(=O)c2cc(F)ccc2N2CCN(C(=O)CN(C)C(=O)C(C)C)[C@@H](C)C2)ccn1` [5-fluoro-N-(2-methoxypyridin-4-yl)-2-{(3S)-3-methyl-4-[N-methyl-N-(2-methylpropanoyl)glycyl]piperazin-1-yl}benzamide]: the half-maximal inhibitory concentration (IC50) at CXCR3 is 11 nM. Same read-out and setting: the figure for `N#Cc1ccc(-c2ccccc2N2CCN(C(=O)Cn3ccc4cccnc43)CC2)cn1` [5-{2-[4-(2-Pyrrolo[2,3-b]pyridin-1-yl-acetyl)-piperazin-1-yl]-phenyl}-pyridine-2-carbonitrile] is 5 nM. The same measure, in the same setting: next, `N#Cc1ncc(-c2ccccc2N2CCN(C(=O)Cn3ccc4cccnc43)CC2)cn1` [5-{2-[4-(2-Pyrrolo[2,3-b]pyridin-1-yl-acetyl)-piperazin-1-yl]-phenyl}-pyrimidine-2-carbonitrile]: 13 nM.

In the case of `COc1cc(NC(=O)c2cc(F)ccc2N2CCN(C(=O)CN(C)C(=O)c3ncoc3C)[C@H](C)C2)ccn1` [N-{2-[(2R)-4-{4-fluoro-2-[(2-methoxypyridin-4-yl)carbamoyl]phenyl}-2-methylpiperazin-1-yl]-2-oxoethyl}-N,5-dimethyl-1,3-oxazole-4-carboxamide], the IC50 on CXCR3 was 12 nM.

As to `Cc1ocnc1C(=O)N(C)CC(=O)N1CCN(c2ccc(F)cc2C(=O)Nc2nc3c(s2)CN(C)CC3)C[C@H]1C` [N-{2-[(2R)-4-{4-fluoro-2-[(5-methyl-4,5,6,7-tetrahydro[1,3]thiazolo[5,4-c]pyridin-2-yl)carbamoyl]phenyl}-2-methylpiperazin-1-yl]-2-oxoethyl}-N,5-dimethyl-1,3-oxazole-4-carboxamide], on CXCR3, the IC50 was determined as 35 nM. `COc1cc(NC(=O)c2cc(F)ccc2N2CCN(C(=O)CN(C)C(=O)c3ncoc3C)[C@@H](C)C2)ccn1` [N-{2-[(2S)-4-{4-fluoro-2-[(2-methoxypyridin-4-yl)carbamoyl]phenyl}-2-methylpiperazin-1-yl]-2-oxoethyl}-N,5-dimethyl-1,3-oxazole-4-carboxamide]: the IC50 at CXCR3 was found to be 11 nM.

Regarding `Cc1ocnc1C(=O)N(C)CC(=O)N1CCN(c2ccc(F)cc2C(=O)Nc2nc3c(s2)CN(C)CC3)C[C@@H]1C` [N-{2-[(2S)-4-{4-fluoro-2-[(5-methyl-4,5,6,7-tetrahydro[1,3]thiazolo[5,4-c]pyridin-2-yl)carbamoyl]phenyl}-2-methylpiperazin-1-yl]-2-oxoethyl}-N,5-dimethyl-1,3-oxazole-4-carboxamide], on CXCR3, the IC50 is 21 nM. With `CCOc1ccc(-n2c(C(C)N(Cc3cccnc3)C(=O)Cc3ccc(F)c(C(F)(F)F)c3)nc3ncccc3c2=O)cc1` (stereo not drawn) [NBI-74330], the atherosclerotic lesion formation result in assay [1] is listed as “significantly attenuated atherosclerotic lesion formation”.
